Reference: ChEMBL document CHEMBL5143617 (Eur J Med Chem, 2022)
Converted amounts (≈) assume the structure as drawn.

How the values were obtained:
[1] = Tmax in mouse hippocampus at 0.625 mg/kg, ip by LC/ESI-MS/MS analysis; format: ADME, organism-based
[2] = Tmax in mouse striatum at 0.625 mg/kg, ip by LC/ESI-MS/MS analysis; format: ADME, organism-based
[3] = Efflux ratio of apparent permeability across basolateral to apical membrane to apical to basolateral membrane in human Caco-2 cells; format: ADME, cell-based
[4] = Cmax in mouse plasma at 0.625 mg/kg, ip measured up to 480 mins by LC/ESI-MS/MS analysis; format: ADME, organism-based; design: time < 480 min, dose 0.625 mg/kg, route ip
[5] = Cmax in mouse frontal cortex at 0.625 mg/kg, ip by LC/ESI-MS/MS analysis; format: ADME, organism-based; design: dose 0.625 mg/kg, route ip
[6] = molecular target: T1, 5-hydroxytryptamine receptor 1A (Homo sapiens, UniProt P08908); assay: Displacement of [3H]-[…] from human 5-HT1A receptor expressed in CHO-K1 cells membrane by scintillation counter analysis; format: cell membranes
T1 sequence (P08908 whole entry): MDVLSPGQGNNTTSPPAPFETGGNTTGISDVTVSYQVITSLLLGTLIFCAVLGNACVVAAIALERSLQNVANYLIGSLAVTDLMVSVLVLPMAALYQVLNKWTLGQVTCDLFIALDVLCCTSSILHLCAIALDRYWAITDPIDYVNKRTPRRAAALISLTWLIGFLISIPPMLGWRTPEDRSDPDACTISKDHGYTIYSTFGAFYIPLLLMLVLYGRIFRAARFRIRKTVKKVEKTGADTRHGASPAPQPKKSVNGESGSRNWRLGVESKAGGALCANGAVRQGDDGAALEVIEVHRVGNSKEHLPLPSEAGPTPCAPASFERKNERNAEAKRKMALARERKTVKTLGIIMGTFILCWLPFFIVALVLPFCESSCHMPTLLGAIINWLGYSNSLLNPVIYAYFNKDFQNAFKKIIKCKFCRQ

[7] = molecular target: T1, 5-hydroxytryptamine receptor 1A; assay: Agonist activity at human 5-HT1A receptor expressed in CHO-K1 cells assessed as stimulation of ERK1/2 phosphorylation incubated for 15 mins by Alpha LISA assay; format: functional, cell-based
[8] = molecular target: cAMP and cAMP-inhibited cGMP 3',5'-cyclic phosphodiesterase 10A (Homo sapiens, UniProt Q9Y233); assay: Inhibition of PDE10A (unknown origin) at 10 uM preincubated for 20 mins followed by substrate addition and measured after 1 hr by PEDlight AMP detection reagent based luminescence assay relative to control; conditions: time 80.0 min
Chain of cAMP and cAMP-inhibited cGMP 3',5'-cyclic phosphodiesterase 10A (Q9Y233 whole entry): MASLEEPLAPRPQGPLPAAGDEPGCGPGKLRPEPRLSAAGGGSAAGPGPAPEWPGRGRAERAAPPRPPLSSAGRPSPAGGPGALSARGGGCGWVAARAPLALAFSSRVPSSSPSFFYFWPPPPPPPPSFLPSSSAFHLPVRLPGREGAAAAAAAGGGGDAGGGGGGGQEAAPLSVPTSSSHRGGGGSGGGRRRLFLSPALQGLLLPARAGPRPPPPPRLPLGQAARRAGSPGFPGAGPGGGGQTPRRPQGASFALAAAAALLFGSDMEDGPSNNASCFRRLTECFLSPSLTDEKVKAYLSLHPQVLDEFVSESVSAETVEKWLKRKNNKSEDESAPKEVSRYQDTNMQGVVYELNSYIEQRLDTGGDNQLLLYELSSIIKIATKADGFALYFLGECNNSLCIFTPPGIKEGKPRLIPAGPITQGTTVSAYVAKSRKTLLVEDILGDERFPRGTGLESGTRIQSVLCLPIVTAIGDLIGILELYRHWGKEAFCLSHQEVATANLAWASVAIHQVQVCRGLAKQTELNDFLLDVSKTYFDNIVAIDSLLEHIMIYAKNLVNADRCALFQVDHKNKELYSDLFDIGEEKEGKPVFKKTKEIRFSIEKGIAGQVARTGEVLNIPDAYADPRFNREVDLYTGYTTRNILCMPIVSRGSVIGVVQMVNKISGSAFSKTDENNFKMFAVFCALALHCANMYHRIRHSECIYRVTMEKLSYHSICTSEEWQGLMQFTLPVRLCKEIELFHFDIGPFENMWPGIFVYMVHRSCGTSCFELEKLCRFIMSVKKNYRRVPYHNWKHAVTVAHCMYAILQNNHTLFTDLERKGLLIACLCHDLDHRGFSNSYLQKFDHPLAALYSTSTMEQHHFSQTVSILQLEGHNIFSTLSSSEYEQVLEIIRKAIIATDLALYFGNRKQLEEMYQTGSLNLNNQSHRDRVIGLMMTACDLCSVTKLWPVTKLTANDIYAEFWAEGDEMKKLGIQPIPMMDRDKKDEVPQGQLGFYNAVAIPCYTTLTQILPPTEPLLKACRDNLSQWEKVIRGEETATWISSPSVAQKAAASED

[9] = Aqueous solubility of compound in simulated intestinal fluid by UV absorbance based analysis; format: physicochemical
[10] = Tmax in mouse frontal cortex at 0.625 mg/kg, ip by LC/ESI-MS/MS analysis; format: ADME, organism-based
[11] = molecular target: T2, Adrenergic receptor alpha-1 (Homo sapiens, UniProt P35348+P25100+P35368); assay: Binding affinity to adrenergic alpha 1 receptor (unknown origin); format: protein assay
T2 sequence (P35348 whole entry): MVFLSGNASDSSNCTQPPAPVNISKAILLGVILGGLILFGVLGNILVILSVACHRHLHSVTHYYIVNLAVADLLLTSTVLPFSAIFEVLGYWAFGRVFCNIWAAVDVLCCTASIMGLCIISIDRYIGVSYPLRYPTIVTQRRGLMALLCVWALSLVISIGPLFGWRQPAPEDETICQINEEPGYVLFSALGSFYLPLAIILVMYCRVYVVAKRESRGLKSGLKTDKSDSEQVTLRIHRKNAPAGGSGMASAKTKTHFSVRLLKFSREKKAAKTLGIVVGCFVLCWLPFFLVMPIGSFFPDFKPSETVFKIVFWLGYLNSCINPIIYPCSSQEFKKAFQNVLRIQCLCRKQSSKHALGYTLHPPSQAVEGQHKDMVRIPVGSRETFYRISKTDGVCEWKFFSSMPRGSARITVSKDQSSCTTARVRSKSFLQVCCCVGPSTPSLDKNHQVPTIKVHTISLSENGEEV
T2 sequence (P25100 whole entry): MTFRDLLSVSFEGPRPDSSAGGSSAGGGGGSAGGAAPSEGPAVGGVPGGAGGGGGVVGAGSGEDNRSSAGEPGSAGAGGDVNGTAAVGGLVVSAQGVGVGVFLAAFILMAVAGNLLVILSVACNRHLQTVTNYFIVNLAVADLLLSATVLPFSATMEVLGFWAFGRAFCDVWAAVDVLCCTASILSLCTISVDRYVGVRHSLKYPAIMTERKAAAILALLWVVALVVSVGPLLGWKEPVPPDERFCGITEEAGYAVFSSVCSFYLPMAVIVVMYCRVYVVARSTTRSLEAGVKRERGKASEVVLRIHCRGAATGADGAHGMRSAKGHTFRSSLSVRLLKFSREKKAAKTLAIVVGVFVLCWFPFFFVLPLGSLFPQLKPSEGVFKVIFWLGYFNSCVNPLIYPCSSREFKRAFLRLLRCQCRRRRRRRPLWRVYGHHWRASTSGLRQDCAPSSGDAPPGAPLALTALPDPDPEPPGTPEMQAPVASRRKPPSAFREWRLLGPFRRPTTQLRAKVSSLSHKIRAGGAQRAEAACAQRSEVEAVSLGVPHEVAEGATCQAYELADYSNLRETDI
T2 sequence (P35368 whole entry): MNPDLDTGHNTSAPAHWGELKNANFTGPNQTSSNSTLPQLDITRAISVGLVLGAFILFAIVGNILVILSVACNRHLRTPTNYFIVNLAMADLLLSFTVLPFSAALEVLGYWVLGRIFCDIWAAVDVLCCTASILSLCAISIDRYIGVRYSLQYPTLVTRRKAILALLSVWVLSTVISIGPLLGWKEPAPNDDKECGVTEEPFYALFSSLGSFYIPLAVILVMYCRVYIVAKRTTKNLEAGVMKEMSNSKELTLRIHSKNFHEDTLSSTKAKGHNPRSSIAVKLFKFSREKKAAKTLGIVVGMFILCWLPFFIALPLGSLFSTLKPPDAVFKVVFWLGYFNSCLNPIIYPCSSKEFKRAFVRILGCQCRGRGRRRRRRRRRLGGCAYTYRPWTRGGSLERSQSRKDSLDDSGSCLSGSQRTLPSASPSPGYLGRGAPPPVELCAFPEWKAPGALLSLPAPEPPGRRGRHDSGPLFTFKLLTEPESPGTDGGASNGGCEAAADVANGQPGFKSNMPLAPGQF

[12] = AUC(0 to t) in mouse striatum at 0.625 mg/kg, ip by LC/ESI-MS/MS analysis; format: ADME, organism-based; design: dose 0.625 mg/kg, route ip

- Tmax [1]: 30 min
- Tmax [2]: 30 min
- efflux ratio [3]: 0.19
- Cmax [4]: 4.1 ng/mL
- Cmax [5]: 327 ng/mL
- Ki [6]: 363 nM
- EC50 [7]: 4790 nM
- inhibition [8]: 21%
- solubility [9]: 181 µM (≈ 84.7 µg/mL)
- Tmax [10]: 480 min
- pKi [11]: 6.11
- AUC(0-t) [12]: 1060 ng·h/mL
Structure (SMILES): COc1cc2ncnc(N3CCC(CN4CCN(c5ccc(Cl)cc5)CC4)C3)c2cc1OC (configuration not stated)
